Data: US20240424036A1, “COMPOSITIONS AND METHODS FOR PREVENTING OR TREATING INCONTINENCE, OVERACTIVE BLADDER, OR MENSTRUAL CRAMPING” (priority 2018, published 2024)
“Also recorded” adds a separate entry of the source.

How the values were obtained:
5637 cells = experiment: Fluorescent microscopy of calcium influx of 5637 cells (FLUO-4); format: cell-based, human
Procedure: Supernatants were collected from cultures grown overnight (24 hours) at 37° C. after reaching stationary phase. Cultures were pelleted by centrifugation at 5000 rpm (Eppendorf Centrifuge 5804 R) for 15 minutes. The supernatant was pH adjusted to 7.0 with 0.1 Molar HCL or NaOH, filter sterilized with 0.22 um sterile syringe filter, and aliquoted and stored at −20 C° until use. In the case of E. coli and E. faecalis, overnight cultures were diluted 1:100 with fresh artificial urine, returned to incubation at 37° C. and sampled at T=1, 2, 3, 4, 5 and 24 hours for testing. […]
The influx of calcium was measured using the FLUO-4 DIRECT™ Calcium Assay kit (Invitrogen™, CA). […] Cells were counted by using the INVITROGEN COUNTESS AUTOMATED CELL COUNTER (Thermo Fisher Scientific, MA.) per the manufacturers' instructions. […] The effect of treatments was assessed using a NIKON EPIFLUORESCENCE TS2R scope at 10× magnification at 494 nm for excitation and 516 nm for emission for 60 seconds. The image intensity was calculated using ImageJ and is indicative of Ca^2+ influx into the urothelial cell's cytoplasmic space from either the extracellular environment or intracellular Ca^2+ stores (referred to as Ca^2+ influx).

[1] = tested on: primary myofibroblast cells; experiment: Myofibroblast populated collagen gel contraction assay; format: cell-based
Procedure: Bacterial supernatants from E. coli, L. crispatus, and L. gasseri strain KE-1 (ATCC Designation No. PTA-125162) were added to a myofibroblast populated collagen matrix, both from pure culture and mixtures with DMEM with 2% FBS. In addition, GABA, ATP and LPS were included as controls. The collagen contraction assay using primary myofibroblast cells seeded on top of a collagen matrix was tested against the bacterial products. […] As depicted in FIG. 12C, pure ATP caused contraction of myofibroblasts in the first hour (30.37%) and continued for 24 hours (68.56%). […] Based on previous literature, it is believed that the contraction maybe caused by E. coli was due to LPS.
Bladder epithelial cells (5637-ATCC HTB-9) were maintained in RPMI 1640 (Roswell-Park Memorial Institute media—Thermo Fisher Scientific, MA) supplemented with 10% fetal bovine serum (FBS) (Thermo Fisher Scientific, Ma.) and 2 mM L-glutamine (Thermo Fisher Scientific, MA.) at 37° C. and 5% CO2. The media was changed every 48 hours or more regularly if the cells were confluent (90%-100%), after washing by 1×PBS and trypsinization by 0.25% Trypsin-EDTA (1×) (Gibco), with the ratio of 1 to 10. Primary myofibroblast cells were extracted from the palmar fascia during surgery from normal tissue. Primary cultures were maintained in DMEM with 10% fetal bovine serum (FBS; Life Technologies, Carlsbad, CA, USA), 1% L-glutamine (Life Technologies) and 1% antibiotic-antimycotic solution (Life Technologies) at 37° C. in 5% CO2. All primary cell lines were used up to a maximum of four passages, after which they were discarded.

E. coli [2] = experiment: ATP release by E. coli at subtherapeutic ciprofloxacin concentrations; format: cell-based, Escherichia coli; settings: concentrations below the MIC of 0.25, 0.125, 0.0625 ug/mL, FIG. 9B
Procedure: Further testing was completed on E. coli and its release of ATP. Testing was conducted to determine the minimum inhibitory concentration (MIC) and subtherapeutic concentrations of exposure to the antibiotic ciprofloxacin (Cip).
The release of ATP from bacterial supernatants was measured using an ATP colorimetric/fluorometric assay kit (Biovision Inc, CA). Samples and reagents were prepared according to the protocol provided. The OD numbers were taken by the BIOTEK EON microplate reader. A luminescent assay kit BACTITER-GLO™ Microbial Cell Viability Assay, G8230) was used to quantify the amount of extracellular ATP released by the bacteria into the supernatant and released by the cells into the cell media. The SYNERGY™ H4 Hybrid Multi-Mode Microplate Reader was used to quantify the amount of extracellular ATP.

E. coli [3] = experiment: Growth of E. coli supplemented with ATP; format: cell-based, Escherichia coli; settings: FIG. 8F
L. crispatus = experiment: Growth of L. crispatus in AU supplemented with ATP; format: cell-based, Lactobacillus crispatus; settings: AU supplemented with different concentrations of ATP, FIG. 8E
Procedure: As depicted in FIG. 8D, the amount of ATP remaining when L. crispatus was grown in AU supplemented with 0.1 mM ATP for 24 hours was 22.89±0.98 uM, which was less than half the control (49.2±6.3 uM) (P≤0.0005). To further investigate ATP reduction, L. crispatus was cultured in AU supplemented with different concentrations of ATP (FIG. 8E), as well as in AU supplemented with 50% E. coli supernatant (FIG. 8G), and 25% G. vaginalis supernatant (FIGS. 8H and 8J), as potential natural sources of ATP. The growth of L. crispatus was increased by increasing ATP concentration (FIG. 8E), including that emanating from the E. coli and G. vaginalis supernatants (FIGS. 8H and 8J). […] In FIGS. 8A-8L, statistical significance was determined using Tukey's test, p≤0.05, and is designated with three asterisks (p less than 0.05*, 0.01**, 0.001***).
For investigation the subtherapeutic concentration of ciprofloxacin, the L. crispatus was grown in deMan, Rogosa, Sharpe media (MRS, Difco, MD). Growth curves for these bacteria were generated using a plate reader (Eon Biotek, VT) at OD600 and 37° C. to determine exponential phase.

Compound: NCCCC(=O)O [GABA, γ-aminobutyric acid]
- effect on stimulation of calcium influx caused by ATP (5637 cells; AU containing 1 uM GABA mixed with ATP in AU, FIG. 10A): reduce the stimulation of calcium influx
- effect on stimulation of calcium influx caused by E. coli supernatant (5637 cells; GABA mixed with E. coli supernatant, FIG. 10B): inhibit the stimulation of calcium influx
- contraction of myofibroblasts ([1]; GABA alone, FIG. 12C): did not cause contraction
- effect on contraction caused by E. coli ([1]; GABA with E. coli, FIG. 12D): inhibited contraction; also recorded: could inhibit contraction

Compound: O=C(O)c1cn(C2CC2)c2cc(N3CCNCC3)c(F)cc2c1=O [ciprofloxacin]
- ATP released by E. coli (E. coli [2]): up to 0.0261±0.003 uM

Compound: Nc1ncnc2c1ncn2[C@@H]1O[C@H](COP(=O)(O)OP(=O)(O)OP(=O)(O)O)[C@@H](O)[C@H]1O [ATP, adenosine triphosphate]
- growth of E. coli (E. coli [3]): somewhat inhibitory effect
- growth of L. crispatus (L. crispatus): increased
- contraction of myofibroblasts ([1]; after 24 hours, sample alone, FIGS. 12A-12C): 68.56%
- contraction of myofibroblasts ([1]; after five hours of exposure, FIG. 12E): 57.5%
- contraction of myofibroblasts ([1]; in the first hour, FIG. 12C): 30.37%
